# From US7169763B2, “Cytochrome P450 3A inhibitors and enhancers” (priority 2002, dated 2007)
# Columns and labels:
# CYP3A = test: Determination of CYP3A activity by erythromycin demethylation method (rat liver homogenate/microsomes); design: CYP3A Activity (percentage of control): dose or concentration left out as unconfirmed; conditions: for inhibitory effects on rat liver CYP3A (in words): summary of Table 1; for enhancing effects on rat hepatic CYP3A (in words): summary of Table 2
# in vivo = conditions: beagle, dog, po, 10 mg/kg
# [1] = inhibitor concentration 77.07, Table 1 Inhibition
# [2] = inhibitor concentration 1.55, Table 1 Inhibition
# [3] = inhibitor concentration 0.004, Table 1 Inhibition
# [4] = inhibitor concentration 0.04, Table 1 Inhibition
# [5] = inhibitor concentration 0.4, Table 1 Inhibition
# [6] = inhibitor concentration 0.1, Table 1 Inhibition
# [7] = inhibitor concentration 4.3, Table 1 Inhibition
Compound,CYP3A Activity (percentage of control) (CYP3A; [3]),CYP3A Activity (percentage of control) (CYP3A; [4]),CYP3A Activity (percentage of control) (CYP3A; [5]),also measured
CC1(C)CC[C@]2(C(=O)O)CC[C@]3(C)C(=CC[C@@H]4[C@@]5(C)CC[C@H](O)C(C)(C)[C@@H]5CC[C@]43C)[C@@H]2C1 [Oleanolic acid],,,,"CYP3A Activity (percentage of control) (CYP3A; inhibitor concentration 0.522, Table 1 Inhibition): 55.95 ± 4.45 percentage of control; CYP3A Activity (percentage of control) (CYP3A; [1]): 44.64 ± 7.92 percentage of control"
CC1(C)[C@@H](O[C@H]2O[C@H](C(=O)O)[C@@H](O)[C@H](O)[C@H]2O[C@@H]2O[C@H](C(=O)O)[C@@H](O)[C@H](O)[C@H]2O)CC[C@]2(C)[C@H]3C(=O)C=C4[C@@H]5C[C@@](C)(C(=O)O)CC[C@]5(C)CC[C@@]4(C)[C@]3(C)CC[C@@H]12 [Glycyrrhizin],,,,"CYP3A Activity (percentage of control) (CYP3A; inhibitor concentration 0.269, Table 1 Inhibition): 42.96 ± 3.75 percentage of control"
O=c1cc(-c2ccccc2)oc2c1ccc1ccccc12 [α-Naphthoflavone],,,,"CYP3A Activity (percentage of control) (CYP3A; inhibitor concentration 1.24, Table 1 Inhibition): 43.52 ± 2.93 percentage of control"
Oc1cc(O)c2c(c1)O[C@@H](c1ccc(O)c(O)c1)[C@@H](O)C2 [(+)-epicatechin],,,,"CYP3A Activity (percentage of control) (CYP3A; inhibitor concentration 0.45, Table 1 Inhibition): 14.66 ± 7.66 percentage of control; CYP3A Activity (percentage of control) (CYP3A; inhibitor concentration 1.41, Table 1 Inhibition): 23.29 ± 5.28 percentage of control; CYP3A Activity (percentage of control) (CYP3A; [2]): 27.96 ± 5.07 percentage of control"
COc1ccc([C@@H]2CC(=O)c3c(O)cc(O)cc3O2)cc1O [hesperetin],84.66 ± 3.04 percentage of control,75.89 ± 3.31 percentage of control,48.25 ± 4.62 percentage of control,inhibitory effects on rat liver CYP3A (in words) (CYP3A): particularly effective
"Oc1cc(O)c2c(c1)O[C@H](c1ccc(O)c(O)c1)[C@@H](O)C2 (relative stereo) [(+)-catechin, 2R-trans-2-(3,4-dihydroxyphenyl)-3,4-dihydro-2H-1-benopyran-3,5,7-triol]",59.31 ± 2.94 percentage of control,62.70 ± 8.53 percentage of control,45.42 ± 6.13 percentage of control,inhibitory effects on rat liver CYP3A (in words) (CYP3A): particularly effective
O=c1cc(-c2ccccc2)oc2ccc3ccccc3c12 [β-Naphthoflavone],,,,"CYP3A Activity (percentage of control) (CYP3A; inhibitor concentration 0.87, Table 1 Inhibition): 42.41 ± 4.08 percentage of control"
C[C@@H]1O[C@@H](Oc2c(-c3ccc(O)c(O)c3)oc3cc(O)cc(O)c3c2=O)[C@H](O)[C@H](O)[C@H]1O [quercitrin],55.06 ± 5.34 percentage of control,73.56 ± 5.96 percentage of control,98.67 ± 7.51 percentage of control,
COc1ccc([C@@H]2CC(=O)c3c(O)cc(O[C@@H]4O[C@H](CO[C@@H]5O[C@@H](C)[C@H](O)[C@@H](O)[C@H]5O)[C@@H](O)[C@H](O)[C@H]4O)cc3O2)cc1O [hesperidin],24.05 ± 5.06 percentage of control,103.79 ± 6.37 percentage of control,80.75 ± 4.18 percentage of control,inhibitory effects on rat liver CYP3A (in words) (CYP3A): particularly effective
C[C@@H]1O[C@@H](O[C@H]2[C@H](Oc3cc(O)c4c(c3)O[C@H](c3ccc(O)cc3)CC4=O)O[C@H](CO)[C@@H](O)[C@@H]2O)[C@H](O)[C@H](O)[C@H]1O [Narigin],,,,"CYP3A Activity (percentage of control) (CYP3A; inhibitor concentration 21.67, Table 1 Inhibition): 56.22 ± 22.87 percentage of control; inhibitory effects on rat liver CYP3A (in words) (CYP3A): particularly effective"
O=c1ccc2ccc(O)cc2o1 [umbelliferone],89.00 ± 12.02 percentage of control,84.87 ± 6.93 percentage of control,90.00 ± 4.20 percentage of control,"CYP3A Activity (percentage of control) (CYP3A; inhibitor concentration 1.84, Table 1 Inhibition): 76.22 ± 2.73 percentage of control; CYP3A Activity (percentage of control) (CYP3A; inhibitor concentration 5.43, Table 1 Inhibition): 98.85 ± 14.19 percentage of control; CYP3A Activity (percentage of control) (CYP3A; inhibitor concentration 16.96, Table 1 Inhibition): 90.33 ± 1.63 percentage of control"
C=CC(=C)CCC=C(C)C [β-myrcene],,,,CYP3A Activity (percentage of control) (CYP3A; [7]): 55.95 ± 4.45 percentage of control; inhibitory effects on rat liver CYP3A (in words) (CYP3A): particularly effective
CC1=CCC(C(C)(C)O)CC1 (stereo not drawn) [α-terpineol],,,,"CYP3A Activity (percentage of control) (CYP3A; inhibitor concentration 501.93, Table 1 Inhibition): 9.29 ± 1.07 percentage of control"
COc1ccc(-c2coc3cc(O)ccc3c2=O)cc1 [formononetin],78.78 ± 2.76 percentage of control,92.06 ± 0.77 percentage of control,,"CYP3A Activity (percentage of control) (CYP3A; enhancer concentration 0.123, Table 2 Enhancement): 113.74 ± 8.87 percentage of control; CYP3A Activity (percentage of control) (CYP3A; [6]): 70.37 ± 5.79 percentage of control; enhancing effects on rat hepatic CYP3A (in words) (CYP3A): particularly effective"
O=C(O)c1cc(O)c(O)c(O)c1 [Gallic acid],,,,"CYP3A Activity (percentage of control) (CYP3A; [7]): 43.86 ± 4.45 percentage of control; CYP3A Activity (percentage of control) (CYP3A; inhibitor concentration 24.66, Table 1 Inhibition): 43.65 ± 0.57 percentage of control; CYP3A Activity (percentage of control) (CYP3A; [1]): 44.09 ± 4.39 percentage of control; inhibitory effects on rat liver CYP3A (in words) (CYP3A): particularly effective"
CCC(C)(C)C(=O)O[C@H]1C[C@@H](C)C=C2C=C[C@H](C)[C@H](CC[C@@H]3C[C@@H](O)CC(=O)O3)[C@H]21 [Simvastatin],,,,MRT (in vivo): 2.79 h; Tmax (in vivo): 0.75 h; half-life (in vivo): 1.47 h
Luteolin-7-glycoside,,98.71 ± 19.74 percentage of control,,"CYP3A Activity (percentage of control) (CYP3A; enhancer concentration 0.004, Table 2 Enhancement): 122.89 ± 40.06 percentage of control; CYP3A Activity (percentage of control) (CYP3A; enhancer concentration 0.1, Table 2 Enhancement): 113.09 ± 5.99 percentage of control; CYP3A Activity (percentage of control) (CYP3A; inhibitor concentration 0.0078, Table 1 Inhibition): 46.68 ± 0.17 percentage of control; enhancing effects on rat hepatic CYP3A (in words) (CYP3A): particularly effective"
CCCCCCCCCCCCO [Lauryl alcohol],,,,"CYP3A Activity (percentage of control) (CYP3A; inhibitor concentration 739.88, Table 1 Inhibition): 18.58 ± 1.46 percentage of control; inhibitory effects on rat liver CYP3A (in words) (CYP3A): particularly effective"

# Second part, led by results:
CYP3A Activity (percentage of control) (CYP3A; [3]),CYP3A Activity (percentage of control) (CYP3A; [4]),CYP3A Activity (percentage of control) (CYP3A; [5]),Compound,also measured
71.26 ± 1.95 percentage of control,60.28 ± 1.95 percentage of control,42.53 ± 0.49 percentage of control,CC(Cc1ccc(O)c(O)c1)C(C)Cc1ccc(O)c(O)c1 (stereo not drawn) [Nordihydroguaiaretic Acid],"CYP3A Activity (percentage of control) (CYP3A; inhibitor concentration 3.09, Table 1 Inhibition): 8.96 ± 1.79 percentage of control; inhibitory effects on rat liver CYP3A (in words) (CYP3A): particularly effective"
52.96 ± 1.15 percentage of control,54.64 ± 5.16 percentage of control,,O=c1cc(-c2ccc(O)cc2)oc2cc(O)cc(O)c12 [apigenin],"CYP3A Activity (percentage of control) (CYP3A; enhancer concentration 0.22, Table 2 Enhancement): 108.62 ± 1.28 percentage of control; CYP3A Activity (percentage of control) (CYP3A; [6]): 59.94 ± 2.50 percentage of control; enhancing effects on rat hepatic CYP3A (in words) (CYP3A): particularly effective"
75.76 ± 7.97 percentage of control,77.52 ± 15.98 percentage of control,91.62 ± 0.76 percentage of control,O=c1c(O)c(-c2ccc(O)c(O)c2)oc2cc(O)cc(O)c12 [quercetin],
64.62 ± 1.53 percentage of control,66.83 ± 5.03 percentage of control,,O=c1c(O[C@@H]2O[C@H](CO)[C@@H](O)[C@H](O)[C@H]2O)c(-c2ccc(O)c(O)c2)oc2cc(O)cc(O)c12 [isoquercitrin],"CYP3A Activity (percentage of control) (CYP3A; inhibitor concentration 0.2, Table 1 Inhibition): 51.46 ± 6.68 percentage of control"
73.03 ± 2.30 percentage of control,76.57 ± 3.83 percentage of control,80.11 ± 8.11 percentage of control,O=c1c(O)c(-c2ccc(O)cc2)oc2cc(O)cc(O)c12 [kaempferol],"CYP3A Activity (percentage of control) (CYP3A; enhancer concentration 1.46, Table 2 Enhancement): 111.35 ± 27.88 percentage of control"
84.66 ± 3.04 percentage of control,81.59 ± 4.76 percentage of control,,O=c1cc(-c2ccccc2)oc2cc(O)c(O)c(O)c12 [baicalein],CYP3A Activity (percentage of control) (CYP3A; [6]): 64.47 ± 4.75 percentage of control
79.71 ± 1.76 percentage of control,67.88 ± 0.49 percentage of control,65.63 ± 1.29 percentage of control,C=C[C@H]1[C@H](O[C@@H]2O[C@H](CO)[C@@H](O)[C@H](O)[C@H]2O)OC=C2C(=O)OCC[C@]21O [swertiamarin],
88.22 ± 0.00 percentage of control,94.10 ± 10.37 percentage of control,106.51 ± 8.16 percentage of control,O=c1cc(-c2ccc(O)c(O)c2)oc2cc(O)cc(O)c12 [Luteolin],"CYP3A Activity (percentage of control) (CYP3A; inhibitor concentration 1.56, Table 1 Inhibition): 36.32 ± 1.26 percentage of control"
60.33 ± 2.18 percentage of control,70.50 ± 0.59 percentage of control,53.89 ± 4.43 percentage of control,CC(=O)OCCCc1ccccc1 [3-phenylpropyl acetate],
81.63 ± 5.21 percentage of control,62.37 ± 12.33 percentage of control,60.54 ± 15.51 percentage of control,O=C1C[C@@H](c2ccc(O)cc2)Oc2cc(O)cc(O)c21 [Nariagenin],CYP3A Activity (percentage of control) (CYP3A; [2]): 47.07 ± 9.87 percentage of control
64.59 ± 3.34 percentage of control,63.71 ± 11.57 percentage of control,59.57 ± 5.41 percentage of control,CC(C)[C@@H](C)/C=C/[C@@H](C)[C@H]1CC[C@H]2C3=CC=C4C[C@@H](O)CC[C@]4(C)[C@H]3CC[C@]12C [ergosterol],
